Assay [1] addresses T1, mHcCP1c (Haemonchus contortus, UniProt A0A7I4XTV4).
T1 construct: native signal peptide replaced by CD5 signal; C-terminal His tag; secreted from FreeStyle 293-F cells; Ni-NTA purified
The assay can be described thus: ovine fibrinogen degradation, SDS-PAGE. In kind it is biochemical. Conditions: 10 and 50 uM E-64, 15 min pre-incubation, PBS pH 7.4, 37 °C, 16 h; irreversible, covalent.

In assay [2] the target is T2, mHcCBP1 (Haemonchus contortus, UniProt A0A7I4Z8W6).
T2 construct: native signal peptide replaced by CD5 signal; C-terminal His tag; secreted from FreeStyle 293-F cells; Ni-NTA purified
T2 sequence (A0A7I4Z8W6 entry or part of it): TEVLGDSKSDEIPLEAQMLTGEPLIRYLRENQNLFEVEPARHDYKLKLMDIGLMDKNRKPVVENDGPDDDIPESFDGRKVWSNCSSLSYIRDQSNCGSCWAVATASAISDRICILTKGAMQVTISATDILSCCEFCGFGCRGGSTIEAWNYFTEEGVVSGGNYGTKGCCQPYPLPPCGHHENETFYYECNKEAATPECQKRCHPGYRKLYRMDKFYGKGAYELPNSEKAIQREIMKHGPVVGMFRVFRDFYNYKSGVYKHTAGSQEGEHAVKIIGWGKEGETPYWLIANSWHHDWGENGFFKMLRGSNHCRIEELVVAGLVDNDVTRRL
Description: ovine fibrinogen degradation, SDS-PAGE. In kind it is biochemical. Particulars: 10 and 50 uM E-64, 15 min pre-incubation, PBS pH 7.4, 37 °C, 16 h; irreversible, covalent.

The source of these data is article PMC12732675, “Catalytically Active Recombinant Cysteine Proteases of Haemonchus contortus: Their Ability to Degrade Host Blood Proteins and Modulate Coagulation” (International Journal of Molecular Sciences, 2025).

T1 sequence (A0A7I4XTV4 entry or part of it): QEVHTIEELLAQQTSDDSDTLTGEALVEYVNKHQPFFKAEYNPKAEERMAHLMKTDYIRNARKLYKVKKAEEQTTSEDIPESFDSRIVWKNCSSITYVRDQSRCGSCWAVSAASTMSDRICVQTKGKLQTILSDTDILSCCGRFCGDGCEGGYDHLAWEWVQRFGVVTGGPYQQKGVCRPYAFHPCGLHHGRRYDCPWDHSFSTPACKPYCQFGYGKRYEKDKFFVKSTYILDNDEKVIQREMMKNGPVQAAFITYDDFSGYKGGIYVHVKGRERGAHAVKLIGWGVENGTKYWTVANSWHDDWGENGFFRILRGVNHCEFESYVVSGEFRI

Consider `CC(C)C[C@H](NC(=O)[C@H]1O[C@@H]1C(=O)O)C(=O)NCCCCN=C(N)N` [E-64, L-trans-epoxysuccinyl-leucyl-amido (4-guanidino) butane], for which the “ovine fibrinogen degradation, SDS-PAGE” value in assay [1] is recorded as “ablation of the fibrinogenolytic activities of mHcCBP1, mHcCP1c (Figure 7A)”; in assay [2], “ablation of the fibrinogenolytic activities of mHcCBP1, mHcCP1c (Figure 7A)”.
